Experimental data as given in ChEMBL document CHEMBL3856204, “Chiral 6-aryl-furo[2,3-d]pyrimidin-4-amines as EGFR inhibitors” (Eur J Med Chem, 2016).

Molecular target: Tyrosine-protein kinase JAK2 (Homo sapiens) (UniProt O60674)
Assay: Inhibition of GST tagged recombinant human JAK2 (809 to 1153 + 9 residues) expressed in baculovirus at 500 nM by Z'-LYTE assay

Chain of Tyrosine-protein kinase JAK2 (Homo sapiens) (O60674 whole entry): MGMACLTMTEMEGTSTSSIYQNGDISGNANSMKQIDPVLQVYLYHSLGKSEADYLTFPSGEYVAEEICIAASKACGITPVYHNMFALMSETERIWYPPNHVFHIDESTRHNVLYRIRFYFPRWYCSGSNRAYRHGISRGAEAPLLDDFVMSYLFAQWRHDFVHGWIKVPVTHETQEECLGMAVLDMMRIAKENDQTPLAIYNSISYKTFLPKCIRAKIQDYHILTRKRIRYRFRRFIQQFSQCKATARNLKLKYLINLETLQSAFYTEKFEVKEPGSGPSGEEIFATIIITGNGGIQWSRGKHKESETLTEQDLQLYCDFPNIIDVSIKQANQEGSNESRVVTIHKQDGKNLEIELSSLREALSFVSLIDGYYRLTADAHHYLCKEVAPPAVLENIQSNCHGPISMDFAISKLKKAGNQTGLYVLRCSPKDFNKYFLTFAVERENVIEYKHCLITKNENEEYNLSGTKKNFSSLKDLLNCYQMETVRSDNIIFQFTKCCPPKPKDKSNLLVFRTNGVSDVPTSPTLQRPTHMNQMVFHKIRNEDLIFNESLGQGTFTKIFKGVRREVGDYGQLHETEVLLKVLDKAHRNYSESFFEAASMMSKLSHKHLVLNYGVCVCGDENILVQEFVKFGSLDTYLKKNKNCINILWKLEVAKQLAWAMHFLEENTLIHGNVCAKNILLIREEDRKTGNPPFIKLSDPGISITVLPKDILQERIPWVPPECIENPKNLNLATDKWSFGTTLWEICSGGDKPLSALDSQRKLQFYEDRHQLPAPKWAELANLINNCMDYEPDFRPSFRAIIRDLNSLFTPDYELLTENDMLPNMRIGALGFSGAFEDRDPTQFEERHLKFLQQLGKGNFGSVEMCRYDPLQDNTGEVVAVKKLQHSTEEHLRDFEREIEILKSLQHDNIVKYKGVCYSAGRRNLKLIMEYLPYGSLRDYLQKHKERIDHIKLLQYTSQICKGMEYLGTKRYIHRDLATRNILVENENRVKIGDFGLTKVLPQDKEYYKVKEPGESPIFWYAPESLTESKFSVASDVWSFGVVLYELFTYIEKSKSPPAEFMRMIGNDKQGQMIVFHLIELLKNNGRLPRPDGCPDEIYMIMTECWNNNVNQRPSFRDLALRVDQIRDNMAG

inhibition: -8%
SMILES: C[C@@H](Nc1ncnc2oc(-c3ccc(NCCN(C)C)cc3)cc12)c1ccccc1
